Laboratory results taken from US9682994B2, “Inhibitors of retroviral replication” (The Scripps Research Institute, priority 2011, dated 2017).
Entries after “also recorded” stand apart in the source; their conditions may differ.

How the values were obtained:
HIV-1 pNL4-3 [1] = test: Viral mRNA expression after acute infection of HeLa-CD4 cells (RT-qPCR); assay type: cell-based
Source text: FIG. 1E: Analysis of viral mRNA expression. […] First-strand cDNA was synthesized with random primers and target DNA was quantified by qPCR using primers recognizing the env and LTR regions. Results were normalized as copies of viral mRNA per copy of GAPDH mRNA. […] RNA samples not reverse transcribed were used as negative control. Error bars represent standard deviations.
Total RNA extracted four days after acute infection with pNL4-3 (MOI>>1) in the presence of drugs. First-strand cDNA was synthesized with random primers, and quantified by qPCR using primers recognizing the env and LTR regions. Results were normalized as copies of viral mRNA per copy of GAPDH mRNA. The arbitrary value of 1 was assigned to the DMSO control. RNA samples that were not reverse transcribed were used as negative control. Error bars represent standard deviation.
First-strand cDNA from RNA for qPCR was prepared using […]™ first-strand cDNA kit (Invitrogen), following the manufacturer's instructions, using approximately 5 μg of RNA as starting material and random hexamers as first-strand primers. Quantitative PCR was performed with an aliquot of cDNA as template, using […]® 480 SYBR Green I Master (Roche) in a 20 μL reaction according to the manufacturer's instructions. […] The primers used were as follows: […]
PIs show low efficacy in this short 48 h assay as they act only upon spreading from the initial infection. […] The results were similar when viral production was determined by RT-PCR of viral RNA in HeLa-CD4 cells infected and treated for four days with one compound from each class of inhibitors (FIG. 5E).

HIV-1 pNL4-3 [2] = test: Viral RNA in chronically infected CEM SS cells; assay type: cell-based; conditions: 7 days treatment
Description: CEM SS cells chronically infected with pNL4-3 were treated with the indicated compounds for 7 days. Quantification of viral RNA was performed as in FIG. 1E.
Such an early time point rules out de novo infections. […] This conclusion was further supported by the fact that treatment of cells that were chronically infected, and therefore continuously shedding the virus (without incurring new infections, due to down-regulation of CD4 from the cell surface), reduced virus production to undetectable levels (FIG. 1F). […] Results were similar when viral release from cells treated for 60 days were measured by p24 enzyme-linked immunosorbent assay (ELISA) (FIG. 1G).

[3] = system: RNAPII occupancy of the HIV promoter and ORF; test: ChIP of RNAPII on HIV promoter and ORF; assay type: cell-based, HIV-1; conditions: 4 days treatment
Description: FIG. 3C: ChIP assay of the HIV promoter. […] Lysates were sonicated, the crosslinks were reversed and RNAPII was immunoprecipitated. DNA was measured by qPCR using the indicated set of primers. ChIP values are represented as percentages of input. Error bars, ±s.d. (n=3). *P<0.05; **P<0.01 (unpaired t-test).
Cells were fixed with formaldehyde (1% [vol/vol]) to crosslink the chromatin and incubated at room temperature for 10 min. Crosslinking was arrested by adding glycine[0.125 M] and incubated for an additional 5 min at room temperature. Cells were then pelleted, washed twice with phosphate-buffered saline, ressuspended in SDS lysis buffer, and incubated 10 min on ice. All solutions used prior to the collection of chromatin-antibody complexes contained protease and phosphatase inhibitor cocktail. Cell lysates were sonicated 4 times for 10 s bursts on ice. The sheared chromatin was diluted by the addition of 3 volumes of ChIP dilution buffer (0.01% SDS, 1.1% Triton X-100, 1.2 mM EDTA, 16.7 mM Tris-HCl (pH 8.1), 167 mM NaCl) and pre-cleared with salmon sperm DNA-protein A/G agarose slurry for 2 h. […] The relative proportions of co-immunoprecipitated DNA fragments were determined on the basis of the threshold cycle (CT) for each PCR product. […]

[4] = Aqueous solubility / formulation in water; assay type: physicochemical; conditions: formulated 1 mg/mL in water

CN(C)[C@H]1C[C@@]23CC[C@@]4(O2)C(=CC[C@]2(C)C(c5ccc6ccncc6c5)=CC[C@H]24)C=C3[C@@H](O)[C@@H]1O [dCA, didehydro-Cortistatin A]
maximum inhibition, viral RNA (HIV-1 pNL4-3 [1]; HeLa-CD4 infected and treated for four days): around 80% | EC50 (HIV-1 pNL4-3 [1]; HeLa-CD4 infected and treated for four days, read-out: EC50, viral production by RT-PCR of viral RNA): < 0.1 nM | total amount of viral RNA in infected cells (HIV-1 pNL4-3 [1]; acute infection, increasing concentrations): drastic dose-dependent reduction | viral RNA levels in chronically infected CEM SS (HIV-1 pNL4-3 [2]): reduced viral RNA levels | association of RNAPII with the HIV promoter and ORF [3]: significantly decreased | aqueous solubility [4]: high aqueous solubility; also recorded: highly soluble in water
